Laboratory results as given in patent US20230120895A1, “PESTICIDALLY ACTIVE HETEROCYCLIC DERIVATIVES WITH SULFUR CONTAINING SUBSTITUENTS” (SYNGENTA CROP PROTECTION AG, priority 2019, published 2023).

Assays:
Assay type in all cases: in vivo
[1] = system: Chilo suppressalis; assay: Activity against Chilo suppressalis (striped rice stemborer); conditions: 144 h, application rate 200 ppm, artificial diet, L2 larvae, 6 days after infestation, read-out: control (mortality, anti-feeding effect or growth inhibition)
Experimental: 24-well microtiter plates with artificial diet were treated with aqueous test solutions prepared from 10′000 ppm DMSO stock solutions by pipetting. After drying, the plates were infested with L2 larvae (6-8 per well). The samples were assessed for mortality, anti-feeding effect, and growth inhibition in comparison to untreated samples 6 days after infestation. Control of Chilo suppressalis by a test sample is given when at least one of the categories mortality, anti-feedant effect, and growth inhibition is higher than the untreated sample.

[2] = system: Spodoptera littoralis; assay: Activity against Spodoptera littoralis (Egyptian cotton leaf worm); conditions: foliar, 72 h, application rate 200 ppm, sprayed cotton leaf discs, L1 larvae, 3 days after infestation, read-out: control (mortality, anti-feeding effect or growth inhibition)
Experimental: Cotton leaf discs were placed onto agar in 24-well microtiter plates and sprayed with aqueous test solutions prepared from 10′000 ppm DMSO stock solutions. After drying the leaf discs were infested with five L1 larvae. The samples were assessed for mortality, anti-feeding effect, and growth inhibition in comparison to untreated samples 3 days after infestation. Control of Spodoptera littoralis by a test sample is given when at least one of the categories mortality, anti-feedant effect, and growth inhibition is higher than the untreated sample.

[3] = system: Diabrotica balteata; assay: Activity against Diabrotica balteata (corn root worm); conditions: 96 h, application rate 200 ppm, sprayed maize sprouts, L2 larvae, 4 days after infestation, read-out: effect in at least one of the two categories (mortality or growth inhibition)
Experimental: Maize sprouts placed onto an agar layer in 24-well microtiter plates were treated with aqueous test solutions prepared from 10′000 ppm DMSO stock solutions by spraying. After drying, the plates were infested with L2 larvae (6 to 10 per well). The samples were assessed for mortality and growth inhibition in comparison to untreated samples 4 days after infestation.

[4] = system: Myzus persicae; assay: Activity against Myzus persicae (green peach aphid), systemic activity; conditions: 144 h, test rate 24 ppm, roots of pea seedlings in test solution, 6 days
Experimental: Roots of pea seedlings infested with an aphid population of mixed ages were placed directly into aqueous test solutions prepared from 10′000 DMSO stock solutions. The samples were assessed for mortality 6 days after placing seedlings into test solutions.

[5] = system: Myzus persicae; assay: Activity against Myzus persicae (green peach aphid), feeding/contact activity; conditions: foliar, 144 h, application rate 200 ppm, sprayed sunflower leaf discs, mixed ages, 6 days after infestation
Experimental: Sunflower leaf discs were placed onto agar in a 24-well microtiter plate and sprayed with aqueous test solutions prepared from 10′000 ppm DMSO stock solutions. After drying, the leaf discs were infested with an aphid population of mixed ages. The samples were assessed for mortality 6 days after infestation.

[6] = system: Plutella xylostella; assay: Activity against Plutella xylostella (diamond back moth); conditions: 192 h, application rate 200 ppm, artificial diet, eggs, 8 days after infestation, read-out: effect in at least one of the two categories (mortality or growth inhibition)
Experimental: 24-well microtiter plates with artificial diet were treated with aqueous test solutions prepared from 10′000 ppm DMSO stock solutions by pipetting. After drying, Plutella eggs were pipetted through a plastic stencil onto a gel blotting paper and the plate was closed with it. The samples were assessed for mortality and growth inhibition in comparison to untreated samples 8 days after infestation. The following compounds gave an effect of at least 80% in at least one of the two categories (mortality or growth inhibition) at an application rate of 200 ppm: P2, P3, P4, P5, P6, P8, P13.

[7] = system: Euschistus heros; assay: Activity against Euschistus heros (neotropical brown stink bug); conditions: 120 h, application rate 200 ppm, sprayed soybean leaves, N2 nymphs, 5 days after infestation, read-out: effect in at least one of the two categories (mortality or growth inhibition)
Experimental: Soybean leaves on agar in 24-well microtiter plates were sprayed with aqueous test solutions prepared from 10′000 ppm DMSO stock solutions. After drying the leaves were infested with N2 nymphs. The samples were assessed for mortality and growth inhibition in comparison to untreated samples 5 days after infestation.

[8] = system: Carpocapsa (Cydia) pomonella; assay: Activity against Carpocapsa (Cydia) pomonella (codling moth); conditions: 336 h, application rate 12.5 ppm, sprayed diet cubes, L1 larvae, 14 days after infestation
Experimental: Diet cubes coated with paraffin were sprayed with diluted test solutions in an application chamber. After drying off the treated cubes (10 replicates) were infested with 1 L1 larvae. Samples were incubated at 26-27° C. and checked 14 days after infestation for mortality and growth inhibition.

[9] = system: Frankliniella occidentalis; assay: Activity against Frankliniella occidentalis (western flower thrips); conditions: foliar, 168 h, application rate 200 ppm, sprayed sunflower leaf discs, mixed ages, 7 days after infestation
Experimental: Sunflower leaf discs were placed on agar in 24-well microtiter plates and sprayed with aqueous test solutions prepared from […] stock solutions. After drying the leaf discs were infested with a Frankliniella population of mixed ages. The samples were assessed for mortality 7 days after infestation.

CCS(=O)(=O)c1ccc(-n2nccn2)nc1-c1cc2ccc(=O)n(CC(F)(F)C(F)(F)F)c2cn1 [P11, 6-[3-ethylsulfonyl-6-(triazol-2-yl)-2-pyridyl]-1-(2,2,3,3,3-pentafluoropropyl)-1,7-naphthyridin-2-one]
≥ 80%: percent control (mortality, anti-feedant effect or growth inhibition) at 200 ppm [1] | percent control (mortality, anti-feedant effect or growth inhibition) at 200 ppm [2] | percent effect (mortality or growth inhibition) at 200 ppm [3]

CCS(=O)(=O)c1cc(N(C)C(C)=O)cnc1-c1cc2ccc(=O)n(CC(F)(F)C(F)(F)F)c2cn1 [P7, N-[5-ethylsulfonyl-6-[2-oxo-1-(2,2,3,3,3-pentafluoropropyl)-1,7-naphthyridin-6-yl]-3-pyridyl]-N-methyl-acetamide]
≥ 80%: mortality at 24 ppm [4] | mortality at 200 ppm [5] | percent control (mortality, anti-feedant effect or growth inhibition) at 200 ppm [1] | percent control (mortality, anti-feedant effect or growth inhibition) at 200 ppm [2] | percent effect (mortality or growth inhibition) at 200 ppm [3]

CCS(=O)(=O)c1cc(-n2ccc(Cl)n2)cnc1-c1cc2ccc(=O)n(CC(F)(F)C(F)(F)F)c2cn1 [P8, 6-[5-(3-chloropyrazol-1-yl)-3-ethylsulfonyl-2-pyridyl]-1-(2,2,3,3,3-pentafluoropropyl)-1,7-naphthyridin-2-one]
≥ 80%: percent effect (mortality or growth inhibition) at 200 ppm [6] | percent control (mortality, anti-feedant effect or growth inhibition) at 200 ppm [1] | percent effect (mortality or growth inhibition) at 200 ppm [7] | percent control (mortality, anti-feedant effect or growth inhibition) at 200 ppm [2] | percent effect (mortality or growth inhibition) at 200 ppm [3]

CCS(=O)(=O)c1cc(Oc2ccccn2)cnc1-c1cc2ccc(=O)n(CC(F)(F)C(F)(F)F)c2cn1 [P9, 6-[3-ethylsulfonyl-5-(2-pyridyloxy)-2-pyridyl]-1-(2,2,3,3,3-pentafluoropropyl)-1,7-naphthyridin-2-one]
≥ 80%: percent control (mortality, anti-feedant effect or growth inhibition) at 200 ppm [1] | percent effect (mortality or growth inhibition) at 200 ppm [7] | percent control (mortality, anti-feedant effect or growth inhibition) at 200 ppm [2] | percent effect (mortality or growth inhibition) at 200 ppm [3]

CCS(=O)(=O)c1ccc(-n2cncn2)nc1-c1cc2ccc(=O)n(CC(F)(F)C(F)(F)F)c2cn1 [P4, 6-[3-ethylsulfonyl-6-(1,2,4-triazol-1-yl)-2-pyridyl]-1-(2,2,3,3,3-pentafluoropropyl)-1,7-naphthyridin-2-one]
≥ 80%: percent effect (mortality or growth inhibition) at 200 ppm [6] | percent control (mortality, anti-feedant effect or growth inhibition) at 200 ppm [1] | mortality at 12.5 ppm [8] | percent control (mortality, anti-feedant effect or growth inhibition) at 200 ppm [2]

CCSc1cc(C2(C#N)CC2)cnc1-c1cc2ccc(=O)n(CC(F)(F)C(F)(F)F)c2cn1 [P13, 1-[5-ethylsulfanyl-6-[2-oxo-1-(2,2,3,3,3-pentafluoropropyl)-1,7-naphthyridin-6-yl]-3-pyridyl]cyclopropanecarbonitrile]
≥ 80%: percent effect (mortality or growth inhibition) at 200 ppm [6] | percent control (mortality, anti-feedant effect or growth inhibition) at 200 ppm [1] | percent control (mortality, anti-feedant effect or growth inhibition) at 200 ppm [2] | percent effect (mortality or growth inhibition) at 200 ppm [3]

CCS(=O)(=O)c1cccnc1-c1cc2ccc(=O)n(CC(F)(F)C(F)(F)F)c2cn1 [P2, 6-(3-ethylsulfonyl-2-pyridyl)-1-(2,2,3,3,3-pentafluoropropyl)-1,7-naphthyridin-2-one]
≥ 80%: mortality at 24 ppm [4] | percent effect (mortality or growth inhibition) at 200 ppm [6] | mortality at 200 ppm [5] | percent control (mortality, anti-feedant effect or growth inhibition) at 200 ppm [1] | percent effect (mortality or growth inhibition) at 200 ppm [7] | percent control (mortality, anti-feedant effect or growth inhibition) at 200 ppm [2] | percent effect (mortality or growth inhibition) at 200 ppm [3]

CCS(=O)(=O)c1ccc(-n2ccnn2)nc1-c1cc2ccc(=O)n(CC(F)(F)C(F)(F)F)c2cn1 [P12, 6-[3-ethylsulfonyl-6-(triazol-1-yl)-2-pyridyl]-1-(2,2,3,3,3-pentafluoropropyl)-1,7-naphthyridin-2-one]
≥ 80%: percent control (mortality, anti-feedant effect or growth inhibition) at 200 ppm [1] | percent control (mortality, anti-feedant effect or growth inhibition) at 200 ppm [2] | percent effect (mortality or growth inhibition) at 200 ppm [3]

CCS(=O)(=O)c1ccc(C2CC2)nc1-c1cc2ccc(=O)n(CC(F)(F)C(F)(F)F)c2cn1 [P5, 6-(6-cyclopropyl-3-ethylsulfonyl-2-pyridyl)-1-(2,2,3,3,3-pentafluoropropyl)-1,7-naphthyridin-2-one]
≥ 80%: percent effect (mortality or growth inhibition) at 200 ppm [6] | mortality at 200 ppm [5] | percent control (mortality, anti-feedant effect or growth inhibition) at 200 ppm [1] | percent control (mortality, anti-feedant effect or growth inhibition) at 200 ppm [2] | percent effect (mortality or growth inhibition) at 200 ppm [3]

CCSc1cc(C2(C#N)CC2)cnc1-c1cc2ccc(=O)n(CC(F)(F)F)c2cn1 [P15, 1-[5-ethylsulfanyl-6-[2-oxo-1-(2,2,2-trifluoroethyl)-1,7-naphthyridin-6-yl]-3-pyridyl]cyclopropanecarbonitrile]
≥ 80%: percent control (mortality, anti-feedant effect or growth inhibition) at 200 ppm [1] | percent control (mortality, anti-feedant effect or growth inhibition) at 200 ppm [2] | percent effect (mortality or growth inhibition) at 200 ppm [3]

CCS(=O)(=O)c1cc(C(C)(C)C#N)cnc1-c1cc2ccc(=O)n(CC(F)(F)C(F)(F)F)c2cn1 [P6, 2-[5-ethylsulfonyl-6-[2-oxo-1-(2,2,3,3,3-pentafluoropropyl)-1,7-naphthyridin-6-yl]-3-pyridyl]-2-methyl-propanenitrile]
≥ 80%: percent effect (mortality or growth inhibition) at 200 ppm [6] | percent control (mortality, anti-feedant effect or growth inhibition) at 200 ppm [1] | mortality at 12.5 ppm [8] | percent effect (mortality or growth inhibition) at 200 ppm [7] | percent control (mortality, anti-feedant effect or growth inhibition) at 200 ppm [2] | percent effect (mortality or growth inhibition) at 200 ppm [3]

CCS(=O)(=O)c1cc(C2(C#N)CC2)cnc1-c1cc2ccc(=O)n(CC(F)(F)F)c2cn1 [P10, 1-[5-ethylsulfonyl-6-[2-oxo-1-(2,2,2-trifluoroethyl)-1,7-naphthyridin-6-yl]-3-pyridyl]cyclopropanecarbonitrile]
≥ 80%: mortality at 200 ppm [5] | percent control (mortality, anti-feedant effect or growth inhibition) at 200 ppm [1] | percent effect (mortality or growth inhibition) at 200 ppm [7] | percent control (mortality, anti-feedant effect or growth inhibition) at 200 ppm [2] | percent effect (mortality or growth inhibition) at 200 ppm [3]

CCS(=O)(=O)c1cc(C2(C#N)CC2)cnc1-c1cc2ccc(=O)n(CC(F)(F)C(F)(F)F)c2cn1 [P3, 1-[5-ethylsulfonyl-6-[2-oxo-1-(2,2,3,3,3-pentafluoropropyl)-1,7-naphthyridin-6-yl]-3-pyridyl]cyclopropanecarbonitrile]
≥ 80%: mortality at 24 ppm [4] | percent effect (mortality or growth inhibition) at 200 ppm [6] | mortality at 200 ppm [5] | percent control (mortality, anti-feedant effect or growth inhibition) at 200 ppm [1] | mortality at 12.5 ppm [8] | percent effect (mortality or growth inhibition) at 200 ppm [7] | mortality at 200 ppm [9] | percent control (mortality, anti-feedant effect or growth inhibition) at 200 ppm [2] | percent effect (mortality or growth inhibition) at 200 ppm [3]

CCSc1cc(-n2ccc(Cl)n2)cnc1-c1cc2ccc(=O)n(CC(F)(F)C(F)(F)F)c2cn1 [P14, 6-[5-(3-chloropyrazol-1-yl)-3-ethylsulfanyl-2-pyridyl]-1-(2,2,3,3,3-pentafluoropropyl)-1,7-naphthyridin-2-one]
≥ 80%: percent control (mortality, anti-feedant effect or growth inhibition) at 200 ppm [1]
